Measured values taken from patent US6737383B1, “Herbicidal oxadiazolidines” (priority 1999, dated 2004).

Experiments:
corn = assay: Test B pre/postemergence corn; assay type: in vivo, Zea mays
Summary of the method: (§1)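 Test chemicals in a non-phytotoxic solvent mixture with surfactant were sprayed preemergence onto planted seeds and postemergence onto plants 2 to 18 cm tall (1- to 4-leaf stage). After twelve to sixteen days in a greenhouse, injury was visually rated against untreated controls from 0 (no effect) to 10 (complete control).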

crabgrass = assay: Test B pre/postemergence crabgrass; assay type: in vivo, Digitaria sanguinalis
Summary of the method: as §1

surinam grass = assay: Test B pre/postemergence surinam grass; assay type: in vivo, Brachiaria decumbens
Summary of the method: as §1

wild oat = assay: Test B pre/postemergence wild oat; assay type: in vivo, Avena fatua
Summary of the method: as §1

sugar beet = assay: Test B pre/postemergence sugar beet; assay type: in vivo, Beta vulgaris
Summary of the method: as §1

pigweed = assay: Test B pre/postemergence pigweed; assay type: in vivo, Amaranthus retroflexus
Summary of the method: as §1

morningglory = assay: Test B pre/postemergence morningglory; assay type: in vivo, Ipomoea hederacea
Summary of the method: as §1

bedstraw = assay: Test B pre/postemergence bedstraw; assay type: in vivo, Galium aparine; conditions: Preemergence; for Bedstraw plant response rating: scale 0 to 10, 0 is no effect, 10 is complete control
Summary of the method: as §1

giant foxtail = assay: Test B pre/postemergence giant foxtail; assay type: in vivo, Setaria faberii
Summary of the method: as §1

wheat = assay: Test B pre/postemergence wheat; assay type: in vivo, Triticum aestivum
Summary of the method: as §1

rape = assay: Test B pre/postemergence rape; assay type: in vivo, Brassica napus
Summary of the method: as §1

purple nutsedge = assay: Test B pre/postemergence purple nutsedge; assay type: in vivo, Cyperus rotundus
Summary of the method: as §1

velvetleaf = assay: Test B pre/postemergence velvetleaf; assay type: in vivo, Abutilon theophrasti
Summary of the method: as §1

blackgrass = assay: Test B pre/postemergence blackgrass; assay type: in vivo, Alopecurus myosuroides
Summary of the method: as §1

cocklebur = assay: Test B pre/postemergence cocklebur; assay type: in vivo, Xanthium strumarium
Summary of the method: as §1

soybean = assay: Test B pre/postemergence soybean; assay type: in vivo, Glycine max
Summary of the method: as §1

[1] = Postemergence, Rate 62 g/ha, scale of 0 to 10, 0 is no effect, 10 is complete control
[2] = Postemergence, Rate 125 g/ha, scale 0 to 10, 0 is no effect, 10 is complete control
[3] = Postemergence, Rate 250 g/ha, scale 0 to 10
[4] = Postemergence, Rate 500 g/ha, scale 0 to 10, 0 is no effect, 10 is complete control
[5] = Preemergence, Rate 62 g/ha, scale of 0 to 10 where 0 is no effect and 10 is complete control
[6] = Preemergence, Rate 125 g/ha, scale 0 to 10, 0 is no effect, 10 is complete control
[7] = Preemergence, Rate 500 g/ha, scale of 0 to 10 where 0 is no effect and 10 is complete control
[8] = Preemergence, Rate 250 g/ha, scale 0 to 10, 0 is no effect, 10 is complete control

With `CC(Cl)=CCn1c(=O)on(C(=O)N(c2ccc(F)cc2F)C(C)C)c1=O` [Compound 514] the “Corn plant response rating” value (corn; [1]) was 0, the “Corn plant response rating” value (corn; [2]) was 0 and the “Corn plant response rating” value (corn; [3]) was 0. For the same compound, the “Plant response rating, Corn” value (corn; [4]) was 5, the “Plant response rating, Corn” value (corn; [5]) was 0 and the “Corn plant response rating” value (corn; [6]) was 0. The “Corn plant response rating” value (corn; [7]) was 5, the “Crabgrass plant response rating” value (crabgrass; [1]) was 7 and the “Crabgrass plant response rating” value (crabgrass; [2]) was 9. The “Crabgrass plant response rating” value (crabgrass; [3]) was 9, the “Plant response rating, Crabgrass” value (crabgrass; [4]) was 10 and the “Plant response rating, Crabgrass” value (crabgrass; [5]) was 5. The “Crabgrass plant response rating” value (crabgrass; [6]) was 7, the “Crabgrass plant response rating” value (crabgrass; [7]) was 10 and the “B. signalgrass plant response rating” value (surinam grass; [1]) was 0. The “B. signalgrass plant response rating” value (surinam grass; [2]) was 0, the “B. signalgrass plant response rating” value (surinam grass; Postemergence, Rate 250 g/ha, scale 0 to 10, 0 no effect, 10 complete control) was 3 and the “Plant response rating, B. signalgrass” value (surinam grass; [4]) was 5. The “Plant response rating, B. signalgrass” value (surinam grass; [5]) was 6, the “B. signalgrass plant response rating” value (surinam grass; [6]) was 6 and the “B. signalgrass plant response rating” value (surinam grass; [8]) was 8. For the same compound, the “B. signalgrass plant response rating” value (surinam grass; Preemergence, Rate 500 g/ha, scale 0 to 10, 0 is no effect, 10 is complete control) was 10, the “Wild oats plant response rating” value (wild oat; [1]) was 0 and the “Wild oats plant response rating” value (wild oat; [2]) was 0. The “Plant response rating, Wild oats” value (wild oat; [4]) was 3, the “Plant response rating, Wild oats” value (wild oat; [5]) was 3 and the “Wild oats plant response rating” value (wild oat; [6]) was 4. The “Wild oats plant response rating” value (wild oat; [7]) was 6, the “Sugarbeets plant response rating” value (sugar beet; [1]) was 3 and the “Sugarbeets plant response rating” value (sugar beet; [2]) was 3. The “Plant response rating, Sugarbeets” value (sugar beet; [4]) was 5, the “Plant response rating, Sugarbeets” value (sugar beet; [5]) was 0 and the “Sugarbeets plant response rating” value (sugar beet; [6]) was 5. The “Sugarbeets plant response rating” value (sugar beet; [7]) was 6, the “Redroot pigweed plant response rating” value (pigweed; [1]) was 0 and the “Redroot pigweed plant response rating” value (pigweed; [2]) was 2. The “Plant response rating, Redroot pigweed” value (pigweed; [4]) was 8, the “Plant response rating, Redroot pigweed” value (pigweed; [5]) was 7 and the “Redroot pigweed plant response rating” value (pigweed; [6]) was 8. The “Redroot pigweed plant response rating” value (pigweed; [7]) was 10, the “Morningglory plant response rating” value (morningglory; [1]) was 2 and the “Morningglory plant response rating” value (morningglory; [2]) was 7. For the same compound, the “Plant response rating, Morningglory” value (morningglory; [4]) was 7, the “Plant response rating, Morningglory” value (morningglory; [5]) was 0 and the “Morningglory plant response rating” value (morningglory; [6]) was 0. For the same compound, the “Morningglory plant response rating” value (morningglory; [7]) was 0, the “Plant response rating, Bedstraw” value (bedstraw; Rate 62 g/ha, scale of 0 to 10 where 0 is no effect and 10 is complete control) was 0 and the “Bedstraw plant response rating” value (bedstraw; Rate 250 g/ha) was 0. The “Bedstraw plant response rating” value (bedstraw; Rate 500 g/ha) was 0, the “Giant foxtail plant response rating” value (giant foxtail; [1]) was 6 and the “Giant foxtail plant response rating” value (giant foxtail; [2]) was 9. For the same compound, the “Plant response rating, Giant foxtail” value (giant foxtail; [4]) was 9, the “Plant response rating, Giant foxtail” value (giant foxtail; [5]) was 9 and the “Giant foxtail plant response rating” value (giant foxtail; [6]) was 10. The “Giant foxtail plant response rating” value (giant foxtail; [7]) was 10, the “Wheat plant response rating” value (wheat; [1]) was 0 and the “Wheat plant response rating” value (wheat; [2]) was 0. The “Plant response rating, Wheat” value (wheat; [4]) was 0, the “Plant response rating, Wheat” value (wheat; [5]) was 0 and the “Wheat plant response rating” value (wheat; [6]) was 0. The “Wheat plant response rating” value (wheat; [7]) was 4, the “Rape plant response rating” value (rape; [1]) was 6 and the “Rape plant response rating” value (rape; [2]) was 6. The “Plant response rating, Rape” value (rape; [4]) was 8, the “Plant response rating, Rape” value (rape; [5]) was 0 and the “Rape plant response rating” value (rape; [6]) was 0. The “Rape plant response rating” value (rape; [7]) was 8, the “Nutsedge plant response rating” value (purple nutsedge; [1]) was 0 and the “Nutsedge plant response rating” value (purple nutsedge; [2]) was 0. For the same compound, the “Plant response rating, Nutsedge” value (purple nutsedge; [4]) was 0, the “Plant response rating, Nutsedge” value (purple nutsedge; [5]) was 0 and the “Nutsedge plant response rating” value (purple nutsedge; [7]) was 0. For the same compound, the “Velvetleaf plant response rating” value (velvetleaf; [1]) was 2, the “Velvetleaf plant response rating” value (velvetleaf; [2]) was 2 and the “Plant response rating, Velvetleaf” value (velvetleaf; [4]) was 5. For the same compound, the “Plant response rating, Velvetleaf” value (velvetleaf; [5]) was 0, the “Velvetleaf plant response rating” value (velvetleaf; [6]) was 0 and the “Velvetleaf plant response rating” value (velvetleaf; [7]) was 5. For the same compound, the “Blackgrass plant response rating” value (blackgrass; [1]) was 0, the “Blackgrass plant response rating” value (blackgrass; [2]) was 3 and the “Blackgrass plant response rating” value (blackgrass; [3]) was 5. The “Plant response rating, Blackgrass” value (blackgrass; [4]) was 5, the “Plant response rating, Blackgrass” value (blackgrass; [5]) was 2 and the “Blackgrass plant response rating” value (blackgrass; [6]) was 2. For the same compound, the “Blackgrass plant response rating” value (blackgrass; [8]) was 5, the “Blackgrass plant response rating” value (blackgrass; [7]) was 7 and the “Cocklebur plant response rating” value (cocklebur; [1]) was 0. For the same compound, the “Cocklebur plant response rating” value (cocklebur; [2]) was 1, the “Cocklebur plant response rating” value (cocklebur; [3]) was 3 and the “Plant response rating, Cocklebur” value (cocklebur; [4]) was 5. The “Plant response rating, Cocklebur” value (cocklebur; [5]) was 0, the “Cocklebur plant response rating” value (cocklebur; [6]) was 0 and the “Cocklebur plant response rating” value (cocklebur; [8]) was 0. For the same compound, the “Cocklebur plant response rating” value (cocklebur; [7]) was 0, the “Soybean plant response rating” value (soybean; [1]) was 6 and the “Soybean plant response rating” value (soybean; [2]) was 7. For the same compound, the “Plant response rating, Soybean” value (soybean; [4]) was 7, the “Plant response rating, Soybean” value (soybean; [5]) was 0 and the “Soybean plant response rating” value (soybean; [6]) was 0. For the same compound, the “Soybean plant response rating” value (soybean; [7]) was 0.
